Like-named read-outs stand apart in the source and are kept apart here.
What was measured:
CPG2 [1] = biological target: T1, CPG2 (Pseudomonas sp., UniProt P06621); settings: substrate of CPG2; Sherwood et al (1985); cited from earlier work
CPG2 [2] = biological target: T1, CPG2; format: biochemical, Pseudomonas sp. strain RS-16
Protocol: (§1) A stock solution of 10 mM Tomudex in 100 mM Tris-HCl pH7.3 was prepared and used to prepare a series of dilutions from 0-100 μM in 100 mM Tris-HCl pH 7.3. 990 μl of each dilution was placed in a quartz cuvette and pre-warmed to 37° C. 10 μl of enzyme solution was added to initiate the reaction and the progress of the reaction was followed by measuring the rate of change in absorbance at 356 nm.
Measurement of the rate of reaction at a range of substrate concentrations, from 1-100 μM allows the Km and kcat for the enzyme to be determined using appropriate computer software such as “Enzfitter” (Biosoft; Cambridge, UK).
as §1, with “LY309887” for “Tomudex”, “is” for “was”, “pre-warned” for “pre-warmed”, “a suitable wavelength. […] Measurement of the rate of reaction at a range of substrate concentrations, from 1-100 μM allows the Km and kcat for the enzyme to be determined using Enzfitter computer software.” for “356 nm.”
as §1, with “AG2034” for “Tomudex”, “is” for “was”, “a suitable wavelength. […] Measurement of the rate of reaction at a range of substrate concentrations, from 1-100 μM allows the Km and kcat for the enzyme to be determined using Enzfitter computer software.” for “356 nm.”
as §1, with “AG2037” for “Tomudex”, “is” for “was”, “a suitable wavelength. […] Measurement of the rate of reaction at a range of substrate concentrations, from 1-100 μM allows the Km and kcat for the enzyme to be determined using Enzfitter computer software.” for “356 nm.”

[3] = 3-weekly schedule, paediatric population; cited from earlier work
bone marrow cells = settings: MTX 100 μM, leucovorin calcium 1,000 μM; cited from earlier work
[4] = Rescue of Tomudex toxicity in a patient by administration of CPG2 (with or without thymidine); format: in vivo; settings: thymidine given together with CPG2 to a patient with toxic plasma levels of Tomudex
Protocol: A patient who has been administered Tomudex and has toxic plasma levels of Tomudex is administered a dose of 50 Units per kg body weight of CPG2 by intravenous injection over a period of about 5 minutes.
A patient who has been administered Tomudex and has toxic plasma levels of Tomudex is administered a dose of 50 Units per kg body weight of CPG2 by intravenous injection over a period of about 5 minutes and is also administered thymidine.

[5] = example in present tense, no values given
[6] = substrate of CPG2, spectrophotometric assay, 100 mM Tris-HCl pH 7.3, 37° C., 356 nm

T1 sequence (P06621 23-415): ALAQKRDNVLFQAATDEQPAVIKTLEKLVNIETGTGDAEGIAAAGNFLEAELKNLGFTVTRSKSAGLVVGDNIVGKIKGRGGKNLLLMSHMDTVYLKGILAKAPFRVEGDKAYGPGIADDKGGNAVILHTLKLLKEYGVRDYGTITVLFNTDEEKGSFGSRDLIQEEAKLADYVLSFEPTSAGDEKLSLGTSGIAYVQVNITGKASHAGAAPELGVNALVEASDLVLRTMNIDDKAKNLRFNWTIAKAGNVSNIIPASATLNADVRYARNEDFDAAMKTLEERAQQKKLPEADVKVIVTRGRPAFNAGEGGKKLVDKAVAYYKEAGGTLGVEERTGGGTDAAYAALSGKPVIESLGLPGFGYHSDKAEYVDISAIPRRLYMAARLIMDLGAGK

With `Nc1nc2c(c(=O)[nH]1)N(C=O)C(CNc1ccc(C(=O)N[C@@H](CCC(=O)O)C(=O)O)cc1)CN2` (some centres unmarked) [5-formyl TIE, 5-formyl tetrahydrofolic acid] as the molecule, how does the Km (CPG2 [1]) read?
The Km was 120 µM.

Which Km (CPG2 [1]) does the source give for `CN1c2c(nc(N)[nH]c2=O)NCC1CNc1ccc(C(=O)N[C@@H](CCC(=O)O)C(=O)O)cc1` (some centres unmarked) [5-methyl THF] here?
Its Km is 34 µM.

For `Cc1cc(C(=O)N[C@@H](CCC(=O)O)C(=O)O)sc1CC[C@@H]1CNc2nc(N)[nH]c(=O)c2C1` [AG2037], which “substrate of CPG2 (contacted with CPG2 in vitro)” value (“substrate of CPG2” below) (CPG2 [2]; [5]) is on record?
Its value is “found to be a substrate of CPG2”.

With `Nc1nc2c(c(=O)[nH]1)C[C@@H](CCc1ccc(C(=O)N[C@@H](CCC(=O)O)C(=O)O)s1)CN2` [LY309887] as the molecule, how does the “substrate of CPG2” value (CPG2 [2]; [5]) read?
Its value is “found to be a substrate of CPG2”.

Which “substrate of CPG2” value (CPG2 [2]) does the source give for `Cc1nc2ccc(CN(C)c3ccc(C(=O)N[C@@H](CCC(=O)O)C(=O)O)s3)cc2c(=O)[nH]1` [Tomudex] here?
Its value is “found to a substrate of CPG2”.

And the Km (CPG2 [2]; [6])?
Its Km is 7.8 µM.

What about the kcat (CPG2 [2]; [6]) of the same molecule?
Its kcat is 24 s⁻¹.

And the maximum tolerated dose [3]?
Its maximum tolerated dose is 6 mg/m^2.

With `Nc1nc2ncc(CNc3ccc(C(=O)N[C@@H](CCC(=O)O)C(=O)O)cc3)nc2c(=O)[nH]1` [folate] as the molecule, how does the Km (CPG2 [1]) read?
The Km was 4 µM.

For `Nc1nc(=O)c2c([nH]1)NCC(CNc1ccc(C(=O)N[C@@H](CCC(=O)[O-])C(=O)[O-])cc1)N2C=O.[Ca+2]` (some centres unmarked) [leucovorin calcium, calcium salt of 5-formyl tetrahydrofolic acid], which “protection of bone marrow cells from MTX toxicity” value (bone marrow cells) is on record?
Its value is “unable to protect bone marrow cells from toxicity”.

For `Cc1cn([C@H]2C[C@H](O)[C@@H](CO)O2)c(=O)[nH]c1=O` [thymidine], which “rescue of cellular toxicity associated with Tomudex” value [4] is on record?
The value was “rescues the cellular toxicity associated with the Tomudex”.
